Assay results as given in publication PMC10877564, “Activity of Gut-Derived Nisin-like Lantibiotics against Human Gut Pathogens and Commensals” (ACS Chemical Biology, 2024).
Positions of bridges follow the written chain, without caps; N, C: chain ends. Non-standard residues stand in square brackets, D forms with d. No end group written: not given here. Abu = CC[C@H](N)C(=O)O; Dhb = C/C=C(\N)C(=O)O; Dha = C=C(N)C(=O)O

Columns and labels:
Assay in all cases: MIC assay, anaerobic broth dilution
C. difficile VPI10463 = type: cell-based, Clostridioides difficile; conditions: BHIS, 37 °C, 48 h, 3-fold serial dilution
Description: (§1) Next, we set out to test the antimicrobial activities of these purified lantibiotics against a panel of Gram-positive bacteria that are representatives of some of the most prevalent human pathogens: VRE, Methicillin-resistant S. aureus USA300 (MRSA), Methicillin-resistant Staphylococcus epidermidis SK135 (MRSE), Listeria monocytogenes 10403S, and Clostridioides difficile VPI10463. We examined the growth of bacteria in a 96-well plate under a concentration gradient of lantibiotics under anaerobic conditions (Figure S2B).
(§2) Elution Buffer (4 M guanidine hydrochloride, 20 mM Tris HCl, pH 7.5 at 25 °C, 100 mM NaCl, 1 M imidazole). Peptides eluted from the Ni resin were concentrated and desalted using 3 kDa Amicon filters (Millipore). For leader peptide removal, the peptide (1:20 trypsin to peptide) was incubated with the trypsin protease in 50 mM Tris-HCl, pH 8 overnight at 37 °C. Lastly, the core peptides were further purified with HPLC using an Agilent 1200 instrument (Agilent) as specified […]
in general methods. […]
For broth cultures, isolates were grown in pre-reduced BHI supplemented with 5 g/L yeast extract (Difco, BD) and 0.1% L-cysteine under anaerobic condition. […]
(§3) All MIC assays were performed under anaerobic condition. […] Lantibiotics were dissolved in DPBS, and concentrations were determined by BCA assay (Pierce) according to the manufacturer’s protocol. […]

[1] = test system: S. epidermidis SK135 (MRSE); type: cell-based, Staphylococcus epidermidis; conditions: BHIS, 37 °C, 48 h, 3-fold serial dilution
Description: as §1, with “S2B). […]” for “S2B).”
(§4) For broth cultures, isolates were grown in pre-reduced BHI supplemented with 5 g/L yeast extract (Difco, BD) and 0.1% L-cysteine under anaerobic condition.
(§5) Minimal Inhibition Concentration (MIC) assay
(§6) All MIC assays were performed under anaerobic condition. Stationary bacterial culture in BHIS (BHI supplemented with 5 g/L yeast extract and 0.1% L-cysteine) were inoculated 1:100 to wells containing 200 µL BHIS in U-bottom 96-well plates. Lantibiotics were dissolved in DPBS, and concentrations were determined by BCA assay (Pierce) according to the manufacturer’s protocol.
Lantibiotic stock solutions were added to wells to reach desired final concentration, with 3-fold serial dilution across rows to create concentration gradients. Bacteria-inoculated wells without lantibiotics served as control. […]

A. hadrus MSK.14.23 = type: cell-based, Anaerostipes hadrus; conditions: BHIS, 37 °C, 48 h, 3-fold serial dilution
Description: (§7) Antibiotic treatment may result in collateral damage to commensal bacteria in the human microbiome, leading to dysbiosis and susceptibility to various diseases.[44] How lantibiotics impact Gram-positive commensals from the human gut has remained unclear. Therefore, we performed antimicrobial activity tests of these lantibiotics against selected Gram-positive human gut commensals, most of which belong to the Lachnospiraceae family, one of the most abundant bacterial families in the human gut.[27] In general, human gut commensals were more susceptible to the set of investigated lantibiotics compared to pathogens (Figure 3). […]
(§8) Isolation of human gut commensal bacteria
(§9) Isolation and growth of commensal bacteria was done as previously reported.5 Briefly, fresh donor fecal samples were transferred into an anaerobic chamber (Coy Labs) within 1 h of collection. The anaerobic chamber was maintained using a gas mix consisting of 5% hydrogen, 5% carbon dioxide and 90% nitrogen, and hydrogen was maintained at ~3.0% using an anaerobic gas infuser. […]
as §3

B. obeum MSK.18.40 = type: cell-based, Blautia obeum; conditions: BHIS, 37 °C, 48 h, 3-fold serial dilution
Description: as §7, §8, §9, §3

C. comes MSK.11.23 = type: cell-based, Coprococcus comes
Description: as §7, §8
Isolation and growth of commensal bacteria was done as previously reported.5 Briefly, fresh donor fecal samples were transferred into an anaerobic chamber (Coy Labs) within 1 h of collection. The anaerobic chamber was maintained using a gas mix consisting of 5% hydrogen, 5% carbon dioxide and 90% nitrogen, and hydrogen was maintained at ~3.0% using an anaerobic gas infuser. Fecal samples were resuspended in pre-reduced PBS and plated on Columbia blood agar or brain-heart infusion (BHI – Difco, BD) agar plates in three serial 10-fold dilutions and incubated at 37 °C for 48 – 96 h. Isolated colonies were re-streaked for purity onto Columbia blood agar and frozen in pre-reduced 10% glycerol in PBS.
as §4, §5, §6
Lantibiotic stock solutions were added to wells to reach desired final concentration, with 3-fold serial dilution across rows to create concentration gradients. Bacteria-inoculated wells without lantibiotics served as control. Plates were incubated at 37 °C for 48 h before being taken out of the anaerobic chamber for centrifugation. Plates were imaged with an iBright 1500 imager […]
pellets than those without lantibiotics were identified as MIC.

E. ramosum MSK.23.96 = type: cell-based, Erysipeloclostridium ramosum; conditions: BHIS, 37 °C, 48 h, 3-fold serial dilution
Description: Antibiotic treatment may result in collateral damage to commensal bacteria in the human microbiome, leading to dysbiosis and susceptibility to various diseases.[44] How lantibiotics impact Gram-positive commensals from the human gut has remained unclear. Therefore, we performed antimicrobial activity tests of these lantibiotics against selected Gram-positive human gut commensals, most of which belong to the Lachnospiraceae family, one of the most abundant bacterial families in the human gut.[27] In general, human gut commensals were more susceptible to the set of investigated lantibiotics compared to pathogens (Figure 3).
as §2, with “specified in general methods. About 1.5 mg recombinant peptide was obtained after HPLC purification per” for “specified”
as §3

## nisin A (I[Dhb]AI[Dha]LC[Abu]PGCK[Abu]GALMGCNMK[Abu]A[Abu]CHCSIHV[Dha]K; thioether 8-11, 13-19, 23-26, 25-28, 3-7; UniProt P13068 24-57, looked up) [prototypical class I lantibiotic produced by L. lactis, food preservative; commercial nisin A]
C. difficile VPI10463
  nisin A MIC: 2.67 µM
[1]
  nisin A MIC: 2.67 µM
A. hadrus MSK.14.23
  nisin A MIC: 0.0110 µM
B. obeum MSK.18.40
  nisin A MIC: 0.0110 µM
C. comes MSK.11.23; C. comes MSK.11.23, anaerobic, BHIS, 37 °C, 48 h, 3-fold serial dilution
  nisin A MIC: 0.296 µM
C. comes MSK.11.23; Figure 3, anaerobic MIC assay
  sensitivity of C. comes MSK.11.23 to the lantibiotic (in words): relatively resistant
E. ramosum MSK.23.96
  nisin A MIC: 0.889 µM
